{"source": "patent US20210008220A1", "about": "“PHARMACEUTICAL COMPOSITIONS CONTAINING POLYROTAXANES” (UNIVERSITY OF GEORGIA RESEARCH FOUNDATION, INC., priority 2018, published 2021)", "key": {"NIO mice (Balb/C)": {"tested_on": "NIO mice (Balb/C)", "assay": "acute toxicity in normal NIO mice", "format": "in vivo, mouse", "settings": "single-dose 300 mg/kg DFO equiv or 100 mg/kg DFO equiv every 2 days x6, tail-vein, 14 days", "description": "Normal NIO mice (Balb/C, Female, 6 weeks old), randomly divided into 7 groups (n=6), were treated with saline, single-dose (300 mg/kg DFO equiv) or multiple-dose (100 mg/kg DFO equiv every 2 days, six doses total) regimens of DFO, rPR-DFO, and rPR-OH (same concentrations as rPR-DFO based on w/v) via tail-vein injections (10 μL/g). Mice were monitored for 14 days for signs of acute toxicity based on body weight loss, changes in appetite, and changes in behavior such as altered gait and lethargy. The body weights of the mice were recorded every other day over the course of the study. Mice were euthanized by CO2 overdose on the 14th day. The lungs, heart, spleen, kidneys, brain and liver of animals were subsequently harvested, rinsed with fresh PBS, blotted dry with Whatman filter paper, and then weighed (note that organ weight is reported as mg of total organ weight per g of animal bw, mg/g). […] Mice also behaved normally and no changes in appetite were noted."}, "[1]": {"settings": "in humans; cited from earlier work"}, "[2]": {"tested_on": "NIO J774A.1 macrophage cells", "assay": "in vitro cytotoxicity, resazurin assay, NIO cells", "format": "cell-based", "settings": "Mus musculus, J774.A1, 48 h, rPR-DFO at equivalent DFO concentrations, read-out: concentration inhibiting 50% cell viability", "procedure": "Briefly, both NIO and IO J774A.1 macrophage cells were seeded in 96-well plates at a density of 3,000 cells/well, cultured at 37° C., 5% CO2 and 100% humidity with DMEM complete medium for 24 h. Cells were then treated with 1 mM free DFO or rPR-DFO at equivalent DFO concentrations (prepared by 1:3 serial dilutions) for 48 h; equivalent rPR-OH based on w/v to rPR-DFO concentrations was also investigated. Next, the substrate resazurin was dissolved in cell culture medium at a concentration of 44 μM, added to each well (100 μl), and incubated at 37° C. for 4 h. The fluorescence change was monitored by exciting at 560 nm and measuring emission at 590 nm with a SpectraMax Gemini EM microplate reader. Readings from wells without cells were used as Eblank, and the readings from control cells without treatment (Econtrol) represented 100% cell viability. The viability of treated cells was calculated by the following equation:"}}}
{"compound": "CC(=O)N(O)CCCCCNC(=O)CCC(=O)N(O)CCCCCNC(=O)CCC(=O)N(O)CCCCCN", "note": "[DFO, Deferoxamine]", "values": [{"measurement": "acute toxicity based on body weights and organ weights", "setting": "NIO mice (Balb/C)", "value": "no apparent evidence of acute toxicity"}, {"measurement": "half-life (blood circulation)", "setting": "[1]", "value": "ca. 20 min"}, {"measurement": "IC50", "setting": "[2]", "value": "~10", "unit": "µM"}]}
